Test results taken from the supplement of paper PMC10702517.
± gives the standard deviation.

Assay: chemical recovery from spiked human plasma; higher = better extraction
Details: pooled human plasma
[1] = extraction method: SPE only (HLB 96-well)
[2] = extraction method: solvent precipitation (ACN + hexane)
[3] = extraction method: PES+SPE (3 d PDMS equilibration then HLB SPE)
[4] = extraction method: SPE only (HLB 96-well), PES comparison experiment

chemical recovery [1] [%]	chemical recovery [2] [%]	chemical recovery [3] [%]	chemical recovery [4] [%]	Structure (SMILES)
21.9 ± 6.3	–	–	–	CCCCCCCCCCCCOC(=O)c1cc(O)c(O)c(O)c1 [Lauryl-gallate]
37.5 ± 7.4	67.9 ± 4.2	1.08 ± 0.9	42.3 ± 6.8	CCN(CC)CC(=O)Nc1c(C)cccc1C [Lidocaine]
–	74.7 ± 4.9	–	42.1 ± 11	CCC[C@@H]1C[C@@H](C(=O)N[C@@H]([C@H]2O[C@H](SC)[C@H](O)[C@@H](O)[C@H]2O)[C@@H](C)O)N(C)C1 [Lincomycin]
35.7 ± 3.2	76.1 ± 3.5	42.8 ± 3.6	–	C[C@@H](O)CCCCn1c(=O)c2c(ncn2C)n(C)c1=O [Lisofylline]
41.7 ± 7.2	74.6 ± 2.9	37.8 ± 2.6	–	COc1ccc2[nH]cc(CCNC(C)=O)c2c1 [Melatonin]
35.9 ± 3	61 ± 4.4	0.434 ± 0.15	48.8 ± 6.8	CC1CCN(CCCC(=O)c2ccc(F)cc2)CC1 [Melperon]
41.4 ± 2.8	74.9 ± 5.7	40.3 ± 5.8	–	COC(=O)c1ccc(CNS(C)(=O)=O)cc1S(=O)(=O)NC(=O)Nc1nc(OC)cc(OC)n1 [Mesosulfuron-methyl]
49.5 ± 3.9	73.9 ± 3.2	53 ± 3.3	–	Cc1nnc(-c2ccccc2)c(=O)[nH]1 [Metamitron-desamino]
40.1 ± 3.3	73.7 ± 3.7	49 ± 6.5	–	Cc1cccc(C)c1N(Cn1cccn1)C(=O)CO [Metazachlor-2-hydroxy]
–	–	0.198 ± 0.34	–	C=C(C)C(N)=O [Methacrylamide]
47.4 ± 5.3	73.1 ± 4.4	71.6 ± 6.9	–	Cc1cc(O)cc(C)c1[S+](C)[O-] (stereo not drawn) [Methiocarb-sulfoxide-phenol]
36.1 ± 3.5	70.6 ± 2	40.6 ± 2.7	–	COc1ccccc1OCC(O)COC(N)=O (stereo not drawn) [Methocarbamol]
60.1 ± 3.9	–	60.3 ± 4	38.1 ± 4.1	CN(Cc1cnc2nc(N)nc(N)c2n1)c1ccc(C(=O)N[C@@H](CCC(=O)O)C(=O)O)cc1 [Methotrexate]
24.9 ± 3.3	57.6 ± 7	–	–	COC(=O)CCc1cc(C(C)(C)C)c(O)c(C(C)(C)C)c1 [Methyl-3-(3,5-di-tert-butyl-4-hydroxyphenyl)propionate]
33.5 ± 2.9	54.1 ± 9.1	41.1 ± 5	–	CC(C)NCC(O)COc1ccc(CC(=O)O)cc1 (stereo not drawn) [Metoprolol acid]
52.1 ± 13	47.1 ± 8.4	–	–	CC(C)NCC(O)COc1ccc(CC(=O)O)cc1 (stereo not drawn) [Metoprolol-acid]
36.2 ± 2.6	75.2 ± 2.3	21.9 ± 2.5	44 ± 5.4	COCCc1ccc(OCC(O)CNC(C)C)cc1 (stereo not drawn) [Metoprolol]
21.2 ± 3.4	70.6 ± 4.1	–	–	Cc1ncc([N+](=O)[O-])n1CCO [Metronidazole]
30.4 ± 2.3	69.4 ± 3.5	0.274 ± 0.11	29.9 ± 9.5	CN1CCN2c3ncccc3Cc3ccccc3C2C1 (stereo not drawn) [Mirtazapine]
44.7 ± 3.3	65.5 ± 6.9	–	–	CC(C)COC(=O)c1ccccc1C(=O)O [Mono-iso-butyl-phthalate]
57.7 ± 4.3	65.3 ± 7.2	59.6 ± 9.9	–	O=C(O)c1ccccc1C(=O)OCc1ccccc1 [Monobenzyl-phthalate]
1.17 ± 0.25	15.5 ± 3.3	–	–	CC(=O)c1c(C)c([N+](=O)[O-])c(C(C)(C)C)c([N+](=O)[O-])c1C [Musk ketone]

chemical recovery [1] [%]	chemical recovery [2] [%]	chemical recovery [3] [%]	chemical recovery [4] [%]	Structure (SMILES)
13.6 ± 0.95	–	27.7 ± 10	–	CCCCCCCCCC(=O)N(C)C [N,N-Dimethyldecan-1-amide]
39.9 ± 3.7	–	42.3 ± 14	–	C=C(C)C(=O)NCCCN(C)C [N-(3-Dimethylamino)propyl)methacrylamide]
43.1 ± 2.7	–	44.5 ± 5.9	–	CC(=O)Nc1c(C)n(C)n(-c2ccccc2)c1=O [N-Acetyl-4-aminoantipyrine]
37.3 ± 0.9	57.5 ± 1	29.2 ± 9.2	–	CCNC(=O)c1cccc(C)c1 [N-Ethyl-3-methylbenzamide]
47.5 ± 6	74.2 ± 3.9	–	–	CCCCCCCCCCCC(=O)NCCO [N-Lauroylethanolamine]
–	1.36 ± 2.4	–	–	CN1CCCC1=O [N-Methyl-2-pyrrolidone]
38.2 ± 3	88 ± 3.1	35 ± 8.6	–	CNC(=O)c1ccccc1 [N-Methylbenzamide]
–	77.4 ± 3.4	–	–	CNS(=O)(=O)c1ccccc1 [N-Methylbenzenesulfonamide]
0.399 ± 0.15	49.1 ± 4.3	0.141 ± 0.063	–	CN1CCC[C@H]1c1cccnc1 [Nicotine]
–	–	–	54.8 ± 8.6	O=C1CN(/N=C/c2ccc([N+](=O)[O-])o2)C(=O)N1 [Nitrofurantoin]
–	63.3 ± 5.8	–	–	CCn1cc(C(=O)O)c(=O)c2cc(F)c(N3CCNCC3)cc21 [Norfloxacin]
–	70.4 ± 5.2	–	–	CC1(C)CC(NC(=O)c2cccc(C(=O)NC3CC(C)(C)NC(C)(C)C3)c2)CC(C)(C)N1 [Nylostab-S-EED]
–	–	–	0.29 ± 0.58	CCCCCCCCOC(=O)CCc1cc(C(C)(C)C)c(O)c(C(C)(C)C)c1 [Octyl-3,5-di-tert-butyl-4-hydroxyhydrocinnamate]
10.2 ± 2.1	141 ± 20	–	–	CCCCC(CC)COC(=O)C=Cc1ccc(OC)cc1 (stereo not drawn) [Octyl-methoxycinnamate]
42 ± 3.9	72.5 ± 3.6	19.8 ± 2.5	–	COc1ccc2[nH]c(SCc3ncc(C)c(OC)c3C)nc2c1 [Omeprazole-sulfide]
32.6 ± 2	73.2 ± 2.9	15.3 ± 3.4	45.7 ± 7.4	Cc1nccn1CC1CCc2c(c3ccccc3n2C)C1=O (stereo not drawn) [Ondansetron]
3.21 ± 3.3	–	–	6 ± 3.7	CCCCCCCCCCC[C@@H](C[C@@H]1OC(=O)[C@H]1CCCCCC)OC(=O)[C@H](CC(C)C)NC=O [Orlistat]
–	0.126 ± 0.22	–	–	NC(=O)N1c2ccccc2CC(=O)c2ccccc21 [Oxcarbazepine]
22.8 ± 4.1	–	–	–	CCCCC(CC)COC(=O)c1ccc(N(C)C)cc1 (stereo not drawn) [Padimate-O]
33.5 ± 8.8	–	–	–	CCCCCCCCCCCCCCCC(=O)NCCO [Palmitoylethanolamide]
3.34 ± 1.2	–	53.3 ± 3.7	–	CCc1c(Br)c(Br)c(Br)c(Br)c1Br [Pentabromoethylbenzene]
6.76 ± 2.3	–	61.6 ± 3.7	–	Cc1c(Br)c(Br)c(Br)c(Br)c1Br [Pentabromotoluene]

Structure (SMILES)	chemical recovery [1] [%]	chemical recovery [2] [%]	chemical recovery [3] [%]	chemical recovery [4] [%]
CC[C@@H](C(N)=O)N1CCCC1=O [Levetiracetam]	21.4 ± 8.7	78 ± 3.8	–	–
CON(C)C(=O)Nc1ccc(Cl)c(Cl)c1 [Linuron]	50.1 ± 0.84	69.6 ± 2.5	46.9 ± 7.1	50.2 ± 7.8
Cc1cc(Cl)ccc1OCCCC(=O)O [MCPB]	35.9 ± 1.6	66.9 ± 4.5	44.6 ± 2	–
C#CCOc1ccc(CCNC(=O)C(OCC#C)c2ccc(Cl)cc2)cc1OC (stereo not drawn) [Mandipropamid]	58.4 ± 2.1	82.4 ± 3.2	70.3 ± 10	–
Nc1nc(N)nc(N)n1 [Melamine]	1.58 ± 0.33	–	2.47 ± 0.79	0.589 ± 1.2
CC#Cc1cc(C)nc(Nc2ccccc2)n1 [Mepanipyrim]	–	70.7 ± 2.9	–	–
C[N+]1(C)CCCCC1 [Mepiquat]	0.813 ± 0.44	108 ± 18	0.578 ± 0.063	11.3 ± 9.5
Cc1nnc(-c2ccccc2)c(=O)n1N [Metamitron]	46.3 ± 4.3	70.3 ± 0.41	53 ± 4.2	92.5 ± 14
CNC(=O)Oc1cc(C)c(S(C)(=O)=O)c(C)c1 [Methiocarb-sulfone]	19.9 ± 1.6	–	0.129 ± 0.019	–
CNC(=O)Oc1cc(C)c(SC)c(C)c1 [Methiocarb]	32.8 ± 0.78	–	0.0787 ± 0.035	0.163 ± 0.33
CNC(=O)O/N=C(\C)SC [Methomyl]	47.3 ± 1.8	75.8 ± 3.8	50.6 ± 5	–
Cn1sc(Cl)cc1=O [Methylchloroisothiazolinone]	0.906 ± 0.2	0.0132 ± 0.023	–	0.321 ± 0.64
COc1cc(C)c(C(=O)c2c(OC)ccc(Br)c2C)c(OC)c1OC [Metrafenone]	50.3 ± 9.1	76.4 ± 4.6	–	–
CN(C)C(=O)Nc1ccc(Cl)cc1 [Monuron]	49.6 ± 3.1	74.2 ± 1.8	60.2 ± 3.6	–
COc1c(C(C)(C)C)cc([N+](=O)[O-])c(C)c1[N+](=O)[O-] [Musk ambrette]	2.96 ± 0.74	–	–	–
Cc1c([N+](=O)[O-])c(C)c([N+](=O)[O-])c(C(C)(C)C)c1[N+](=O)[O-] [Musk xylene]	97.1 ± 31	33.5 ± 9.3	–	–
CCN(CC)c1ccccc1 [N,N-Diethylaniline]	5.76 ± 3.4	0.0912 ± 0.079	0.987 ± 1.6	–
CCCCCCCCCCCCN(C)C [N,N-Dimethyldodecylamine]	–	78.3 ± 23	–	42.1 ± 8.8
CC(C)CC(C)Nc1ccc(Nc2ccccc2)cc1 (stereo not drawn) [N-(1,3-Dimethylbutyl)-N'-phenyl-1,4-phenylenediamine]	1.42 ± 1.6	–	–	–
CCNS(=O)(=O)C(F)(F)C(F)(F)C(F)(F)C(F)(F)C(F)(F)C(F)(F)C(F)(F)C(F)(F)F [N-Ethylperfluorooctane-sulfonamide]	2.91 ± 0.86	–	–	–
CN(C1CCCCC1)C1CCCCC1 [N-Methyl-dicyclohexylamine]	30.9 ± 1.6	50.9 ± 7.1	0.654 ± 0.19	–
CCN(CC)C(=O)C(C)Oc1cccc2ccccc12 (stereo not drawn) [Napropamide]	–	70.6 ± 2.5	–	–
CNC(=O)O/N=C(\SC)C(=O)N(C)C [Oxamyl]	28 ± 2.6	6.16 ± 4.2	–	–
CCCC(Cn1cncn1)c1ccc(Cl)cc1Cl (stereo not drawn) [Penconazole]	65.9 ± 1.6	67.7 ± 4.2	51.3 ± 5.9	–
O=C(Nc1ccccc1)N(Cc1ccc(Cl)cc1)C1CCCC1 [Pencycuron]	28.4 ± 3.3	–	54 ± 6.3	–
COc1cnc(OC)n2nc(NS(=O)(=O)c3c(OCC(F)F)cccc3C(F)(F)F)nc12 [Penoxsulam]	42.2 ± 4.3	78.9 ± 3.6	53.1 ± 7.8	–
NC(=O)C(F)(F)C(F)(F)F [Pentafluoropropionamide]	0.923 ± 0.9	0.174 ± 0.24	9.12 ± 7.6	–
